The source of these data is ChEMBL document CHEMBL1142477, “Synergistic interaction between p-glycoprotein modulators and epirubicine on resistant cancer cells” (Bioorg Med Chem, 2008).

Converted amounts (≈) assume the structure as drawn.

Series [1] deals with T1, ATP-dependent translocase ABCB1 (Homo sapiens, UniProt P08183). As to the kind of experiment: Reversal of P-glycoprotein-mediated multidrug resistance in human MDR1 gene transfected mouse L5178 cells assessed as fluorescence activity ratio at 4 ug/ml by rhodamine-123 exclusion test. In kind it is cell-based.
T1 sequence (P08183 whole entry): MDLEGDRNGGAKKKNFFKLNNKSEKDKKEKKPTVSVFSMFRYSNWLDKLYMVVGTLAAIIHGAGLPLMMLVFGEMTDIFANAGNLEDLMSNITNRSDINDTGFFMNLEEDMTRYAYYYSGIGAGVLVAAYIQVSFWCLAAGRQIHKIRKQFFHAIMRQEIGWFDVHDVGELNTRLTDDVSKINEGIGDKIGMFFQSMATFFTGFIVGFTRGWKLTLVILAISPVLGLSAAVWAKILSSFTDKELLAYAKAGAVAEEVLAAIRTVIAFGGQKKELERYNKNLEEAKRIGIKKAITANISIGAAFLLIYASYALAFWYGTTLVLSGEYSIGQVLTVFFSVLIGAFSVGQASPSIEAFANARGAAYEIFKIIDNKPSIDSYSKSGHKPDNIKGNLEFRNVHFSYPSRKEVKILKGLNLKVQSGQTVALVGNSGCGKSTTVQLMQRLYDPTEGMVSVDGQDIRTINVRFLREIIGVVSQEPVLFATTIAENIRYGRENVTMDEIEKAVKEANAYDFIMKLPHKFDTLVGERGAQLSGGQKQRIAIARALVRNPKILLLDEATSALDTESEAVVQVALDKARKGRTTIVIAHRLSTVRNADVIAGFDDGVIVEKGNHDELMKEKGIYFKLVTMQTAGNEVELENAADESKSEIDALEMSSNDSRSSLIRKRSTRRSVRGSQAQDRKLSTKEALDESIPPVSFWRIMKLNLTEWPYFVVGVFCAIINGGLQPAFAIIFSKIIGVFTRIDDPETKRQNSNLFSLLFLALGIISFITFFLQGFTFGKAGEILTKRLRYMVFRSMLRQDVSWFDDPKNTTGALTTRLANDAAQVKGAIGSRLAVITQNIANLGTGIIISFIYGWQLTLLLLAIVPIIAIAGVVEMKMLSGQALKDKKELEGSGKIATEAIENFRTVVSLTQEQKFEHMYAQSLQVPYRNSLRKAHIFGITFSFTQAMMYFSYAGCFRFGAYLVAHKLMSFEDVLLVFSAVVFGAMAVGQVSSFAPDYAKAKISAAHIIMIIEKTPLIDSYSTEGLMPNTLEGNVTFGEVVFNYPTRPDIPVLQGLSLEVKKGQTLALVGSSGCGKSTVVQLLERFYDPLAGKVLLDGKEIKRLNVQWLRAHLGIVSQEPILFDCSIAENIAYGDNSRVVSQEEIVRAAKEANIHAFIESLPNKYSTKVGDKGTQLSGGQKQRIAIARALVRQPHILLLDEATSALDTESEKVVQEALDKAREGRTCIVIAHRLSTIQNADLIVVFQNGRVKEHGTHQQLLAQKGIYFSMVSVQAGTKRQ
Series [2] deals with T1, ATP-dependent translocase ABCB1. As to the kind of experiment: Reversal of P-glycoprotein-mediated multidrug resistance in human MDR1 gene transfected mouse L5178 cells assessed as mean fluorescence intensity at 4 ug/ml by rhodamine-123 exclusion test. In kind it is cell-based.
Series [3] has the same target. As to the kind of experiment: Reversal of P-glycoprotein-mediated multidrug resistance in human MDR1 gene transfected mouse L5178 cells assessed as fluorescence activity ratio at 40 ug/ml by flow cytometry. In kind it is cell-based.
For series [4] the target is unchanged. As to the kind of experiment: Reversal of P-glycoprotein-mediated multidrug resistance in human MDR1 gene transfected mouse L5178 cells assessed as mean fluorescence intensity at 40 ug/ml by rhodamine-123 exclusion test. In kind it is cell-based.
Series [5] is described as follows: Antiproliferative activity against parental mouse L5178 cells after 72 hrs MTT assay. In kind it is functional. The following applies: L5178, 72 h, read-out: ID50 (the source's name). (Tetrazolium assays rely on reduction of a dye to a coloured formazan, in cell work by metabolically active cells.)
Series [6] is described as follows: Antiproliferative activity against multidrug-resistant mouse L5178 cells after 72 hrs MTT assay. In kind it is functional. The following applies: L5178, 72 h, read-out: ID50 (the source's name).
A short description of series [7]: Lipophilicity, log P of the compound. Particulars: octanol/water. In kind it is physicochemical.
Series [8] can be described thus: Potentiation of epirubicin-induced cytotoxicity against mouse L5178 cells assessed as fractional inhibitory index by checkerboard microplate method. In kind it is functional.

For orientation: logP means the decadic logarithm of the partition coefficient of the neutral form, usually between octanol and water. A high value points to higher lipophilicity. In the case of `C=C1[C@@H](OC(=O)c2ccccc2)[C@@H](OC(C)=O)[C@@H](OC(C)=O)C(C)(C)/C=C/[C@H](C)C(=O)[C@@]2(OC(C)=O)C[C@@](C)(OC(=O)c3ccccc3)[C@H](OC(C)=O)[C@@H]2[C@H]1OC(C)=O` [EUPHOTUCKEYANOL], the Ratio in series [1] is 81; in series [3], 106.2. The figures for the Flu intensity in series [2] and in series [4] were 1127.4 and 1476.7, respectively. Further, the IC50 in series [5] was determined as 45 µg/mL (≈ 55 µM); in series [6], 22.8 µg/mL (≈ 27.8 µM). The logP in series [7] came to 6.7. Further, the “fractional inhibitory concentration index (FICI)” value in series [8] came to 0.08.

In series [7], `C/C1=C\[C@@H]2[C@H](CC[C@@]3(C)O[C@@H]3[C@H]3[C@@H](O)[C@@H](C)C[C@]3(OC(=O)/C=C/c3ccccc3)C1=O)C2(C)C` [JOLKINOL B] gave a logP of 5.8.

Compound `CC(=O)OC[C@H]1C[C@]2(OC(=O)/C=C/c3ccccc3)C(=O)/C(C)=C/[C@@H]3[C@H](CC[C@@]4(C)O[C@@H]4[C@H]2[C@H]1O)C3(C)C` [LATILAGASCENE A] showed a logP in series [7] of 5.5.

For the compound `C/C1=C\[C@@H]2[C@H](CC[C@@]3(C)O[C@@H]3[C@H]3[C@@H](O)[C@@H](CO)C[C@]3(OC(=O)/C=C/c3ccccc3)C1=O)C2(C)C` [LATILAGASCENE B], the logP in series [7] amounted to 4.8.

`CC(=O)OC[C@H]1C[C@]2(OC(=O)/C=C/c3ccccc3)C(=O)/C(C)=C/[C@@H]3[C@H](CC[C@@]4(C)O[C@@H]4[C@H]2[C@H]1OC(C)=O)C3(C)C` [LATILAGASCENE C] came in with a logP in series [7] of 6.2.

`C/C1=C\[C@@H]2[C@H](CC[C@@]3(C)O[C@@H]3[C@H]3[C@@H](O)[C@@H](COC(=O)c4ccccc4)C[C@]3(OC(=O)/C=C/c3ccccc3)C1=O)C2(C)C` [LATILAGASCENE D] displayed a logP in series [7] of 7.2.

As to `CC1(C)[C@@H]2/C=C(\CO)C(=O)[C@@]3(OC(=O)/C=C/c4ccccc4)C[C@H](COC(=O)c4ccccc4)[C@H](O)[C@@H]3[C@H]3O[C@]3(C)CC[C@@H]21` [LATILAGASCENE E], the logP in series [7] is 5.9.

In series [7], `C/C1=C\[C@@H]2[C@H](CC[C@@]3(C)O[C@@H]3[C@H]3[C@@H](O)[C@@H](C)C[C@]3(OC(=O)c3ccccc3)C1=O)C2(C)C` [LATILAGASCENE F] gave a logP of 5.3.

For `CC(=O)O[C@H]1[C@@H](COC(=O)c2ccccc2)C[C@]2(OC(=O)/C=C/c3ccccc3)C(=O)/C(C)=C/[C@@H]3[C@H](CC[C@@]4(C)O[C@@H]4[C@@H]12)C3(C)C` [LATILAGASCENE G], the Ratio in series [1] came to 68.9; in series [3], 71.6. Besides, the Flu intensity in series [2] is listed as 478.3; in series [4], 496.6. Also, the IC50 worked out at 32.2 µg/mL (≈ 51.4 µM) in series [5] and 28 µg/mL (≈ 44.7 µM) in series [6]. For the same compound, the logP in series [7] came to 7.9. Besides, the “fractional inhibitory concentration index (FICI)” value in series [8] is recorded as 0.14.

As to `CCC(=O)OC[C@H]1C[C@]2(OC(=O)/C=C/c3ccccc3)C(=O)/C(C)=C/[C@@H]3[C@H](CC[C@@]4(C)O[C@@H]4[C@H]2[C@H]1OC(=O)CC)C3(C)C` [LATILAGASCENE H], the Ratio in series [1] stood at 61.6; in series [3] it was 78. The values for the Flu intensity in series [2] and in series [4] were 427.4 and 541.3, respectively. For the same compound, the IC50 came out at 25.3 µg/mL (≈ 42.7 µM) in series [5] and 17.5 µg/mL (≈ 29.5 µM) in series [6]. Also, the logP in series [7] was 6.9. Moreover, the “fractional inhibitory concentration index (FICI)” value in series [8] turned out to be 0.07.

Regarding `CCCC(=O)OC[C@H]1C[C@]2(OC(=O)/C=C/c3ccccc3)C(=O)/C(C)=C/[C@@H]3[C@H](CC[C@@]4(C)O[C@@H]4[C@H]2[C@H]1OC(=O)CCC)C3(C)C` [LATILAGASCENE I], the Ratio in series [1] amounted to 62.4; in series [3], 54.2. The values for the Flu intensity in series [2] and in series [4] were 433.4 and 376.5, respectively. Further, the IC50 in series [5] worked out at 23.9 µg/mL (≈ 38.5 µM); in series [6], 17.3 µg/mL (≈ 27.9 µM). Besides, the logP in series [7] is 8. The “fractional inhibitory concentration index (FICI)” value in series [8] was found to be 0.14.

In the case of `C=C1[C@@H](OC(=O)C(C)CC)[C@@H](OC(C)=O)C(=O)C(C)(C)/C=C/[C@H](C)[C@H](OC(=O)c2ccccc2)[C@@]2(O)C[C@H](C)[C@H](OC(C)=O)[C@@H]2[C@H]1OC(C)=O` (stereo not given in full) [TUCKEYANOL A], the Ratio came out at 39.8 in series [1] and 98.9 in series [3]. The results for the Flu intensity in series [2] and in series [4] were 554 and 1375.6, respectively. Further, the figures for the IC50 in series [5] and in series [6] were 25.8 µg/mL (≈ 36.9 µM) and 17.6 µg/mL (≈ 25.2 µM), respectively. The same compound yielded a logP in series [7] of 4.5. In addition, in series [8], the “fractional inhibitory concentration index (FICI)” value came out at 0.18.

In the case of `C=C1[C@@H](OC(=O)C(C)C)[C@@H](OC(C)=O)C(=O)C(C)(C)/C=C/[C@H](C)[C@H](OC(=O)c2ccccc2)[C@@]2(O)C[C@H](C)[C@H](OC(C)=O)[C@@H]2[C@H]1OC(C)=O` [TUCKEYANOL B], the Ratio in series [1] is recorded as 25; in series [3], 97.3. Further, the Flu intensity in series [2] was 347.6; in series [4] it was 1353.2. In addition, the values for the IC50 in series [5] and in series [6] were 19.4 µg/mL (≈ 28.3 µM) and 12 µg/mL (≈ 17.5 µM), respectively. Besides, the logP in series [7] stood at 4. In series [8], the “fractional inhibitory concentration index (FICI)” value worked out at 0.25.
